This passage reports Emax and EC50 results from patent publication US9790211B2, “5-amino-quinoline-8-carboxamide derivatives as 5-HT4 receptor agonists” (SUVEN LIFE SCIENCES LIMITED, priority 2013, dated 2017).

The target in the assay is T1, recombinant human 5-HT4 receptor (Homo sapiens, UniProt Q13639).
T1 construct: expressed in transfected cells
In words: Determination of EC50 values for 5-HT4 receptor (CHO cells, pCRE-Luc reporter). It counts as cell-based. Particulars: for EC50: 4 hours incubation. Here is the method: Determination of EC50 Values for 5-HT4 Receptor
A stable CHO cell line expressing recombinant human 5-HT4 receptor and pCRE-Luc reporter system was used for cell-based assay. The assay offers a non-radioactive based approach to determine binding of a compound to GPCRs. In this specific assay, the level of intracellular cyclic AMP, which is modulated by activation, or inhibition of the receptor is measured. The recombinant cells harbor luciferase reporter gene under the control of cAMP response element.
The above cells were grown in 96 well clear bottom white plates in Hams F12 medium containing 10% fetal bovine serum (FBS). Prior to the addition of compounds or standard agonist, cells were serum starved overnight. Increasing concentrations of test compounds were added in OptiMEM medium to the cells. The incubation was continued at 37° C. in CO2 incubator for 4 hours. Medium was removed and cells were washed with phosphate buffered saline. The cells were lysed and luciferase activity was measured in a Luminometer. Luminescence units were plotted against the compound concentrations using Graphpad software.

The mark [1] stands for this setting: CHO cells, human 5-HT4 receptor, luciferase reporter.
The mark [2] stands for this setting: CHO, CHO cells, human 5-HT4 receptor, luciferase reporter, read-out: Emax.

Like-named read-outs stand apart in the source and are kept apart here.

T1 sequence (Q13639 whole entry): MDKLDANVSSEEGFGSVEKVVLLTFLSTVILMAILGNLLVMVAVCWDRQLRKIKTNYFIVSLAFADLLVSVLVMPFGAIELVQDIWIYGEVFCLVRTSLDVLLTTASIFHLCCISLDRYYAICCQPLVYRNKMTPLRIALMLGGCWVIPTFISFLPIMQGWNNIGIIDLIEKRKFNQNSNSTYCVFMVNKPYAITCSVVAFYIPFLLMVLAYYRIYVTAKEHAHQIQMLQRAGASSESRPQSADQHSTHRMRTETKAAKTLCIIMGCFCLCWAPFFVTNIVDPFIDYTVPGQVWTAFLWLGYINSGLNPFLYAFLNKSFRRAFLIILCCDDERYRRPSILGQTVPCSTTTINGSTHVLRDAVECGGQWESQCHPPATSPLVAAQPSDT

For the molecule “5-Amino-6-chloro-N-{[3-(2-fluoro-2-methyl propyl)-3-azabicyclo[3.1.0]hex-6-yl]methyl} quinoline-8-carboxamide [Example 47]”, under setting [1], the maximum response (Emax) (in general, the greatest response seen or fitted, relative to the assay's reference) was 79% and the EC50 (commonly the concentration giving half of the maximal effect) is 1.6 nM. On to `Nc1c(Cl)cc(C(=O)NCC2[C@H]3CN(CC4CCOCC4)C[C@@H]23)c2ncccc12` (mixture of isomers) [Example 15, 5-Amino-6-chloro-N-{[3-(tetrahydro-2H-pyran-4-ylmethyl)-3-azabicyclo[3.1.0]hex-6-yl]methyl}quinoline-8-carboxamide (exo/endo mixture)], for which the EC50 under setting [1] is 0.5 nM. Besides, under setting [2], the Emax is 54%. On to `Nc1c(Cl)cc(C(=O)NC2CCN(CC3CCOCC3)CC2)c2ncccc12` [Example 3, 5-Amino-6-chloro-N-[1-(tetrahydro-2H-pyran-4-ylmethyl)-4-piperidinyl]quinoline-8-carboxamide], for which the 50% effective concentration (EC50) under setting [1] came out at 2.5 nM. For the same molecule, the maximum response (Emax) under setting [2] amounted to 79%. For `Nc1c(Cl)cc(C(=O)NCC2CCN(C3CCOCC3)CC2)c2ncccc12` [Example 6, 5-Amino-6-chloro-N-{[1-(tetrahydro-2H-pyran-4-yl)-4-piperidinyl]methyl}quinoline-8-carboxamide L(+)-tartarate], the maximal effect (Emax) (CHO) worked out at 56%. Besides, under setting [1], the EC50 amounted to 0.1 nM. `Nc1c(Cl)cc(C(=O)NCC2C3CN(CC4CCOC4)CC23)c2ncccc12` (stereo not shown) [Example 7, 5-Amino-6-chloro-N-{[3-(tetrahydro-3-furanylmethyl)-3-azabicyclo[3.1.0]hex-6-yl]methyl}quinoline-8-carboxamide]: under setting [1], the EC50 stood at 0.57 nM. Also, the Emax under setting [2] amounted to 71%. As to `CC(C)CN1CC2C(CNC(=O)c3cc(Cl)c(N)c4cccnc34)C2C1` (stereo not drawn) [Example 8, 5-Amino-6-chloro-N-{[3-isobutyl-3-azabicyclo[3.1.0]hex-6-yl]methyl}quinoline-8-carboxamide L(+)-tartarate], for the setting “CHO”, the Emax was 87%. For the same molecule, the 50% effective concentration (EC50) under setting [1] came out at 0.7 nM.

Turning to `Nc1c(Cl)cc(C(=O)NCC2C3CN(CC4CC4)CC23)c2ncccc12` (stereo not drawn) [Example 9, 5-Amino-6-chloro-N-{[3-cyclopropylmethyl-3-azabicyclo[3.1.0]hex-6-yl]methyl} quinoline-8-carboxamide L(+)-tartarate], the Emax (CHO) amounted to 87%. Further, the half-maximal effective concentration (EC50) under setting [1] came to 0.8 nM.

In the case of `CC(C)N1CC2C(CNC(=O)c3cc(Cl)c(N)c4cccnc34)C2C1` (stereo not drawn) [Example 10, 5-Amino-6-chloro-N-{[3-isopropyl-3-azabicyclo[3.1.0]hex-6-yl]methyl}quinoline-8-carboxamide L(+)-tartarate], the Emax (CHO) was 83%. Besides, the EC50 under setting [1] turned out to be 1.5 nM. In the same order, the values of `Nc1c(F)cc(C(=O)NCC2CCN(CC3CCOCC3)CC2)c2ncccc12` [Example 11, 5-Amino-6-fluoro-N-{[1-(tetrahydro-2H-pyran-4-ylmethyl)-4-piperidinyl]methyl} quinoline-8-carboxamide L(+)-tartarate] are 77% and 0.3 nM. On to `Nc1c(Cl)cc(C(=O)NCC2CCN(CC3CCOCC3)C2)c2ncccc12` (stereo not drawn) [Example 12, 5-Amino-6-chloro-N-{[1-(tetrahydro-2H-pyran-4-ylmethyl)-3-pyrrolidinyl]methyl} quinoline-8-carboxamide L(+)-tartarate], for which the maximum response (Emax) (CHO) stood at 83%. The 50% effective concentration (EC50) under setting [1] was 0.2 nM.

For `Nc1c(Br)cc(C(=O)NCC2CCN(CC3CCOCC3)CC2)c2ncccc12` [Example 16, 5-Amino-6-bromo-N-{[1-(tetrahydro-2H-pyran-4-ylmethyl)-4-piperidinyl]methyl} quinoline-8-carboxamide L(+)-tartarate], under “CHO”, the maximum response (Emax) came to 62%. The EC50 under setting [1] stood at 0.08 nM. In the same order, the values of `Nc1c(Br)cc(C(=O)NCC2C3CN(CC4CCOCC4)CC23)c2ncccc12` (stereo not drawn) [Example 17, 5-Amino-6-bromo-N-{[3-(tetrahydro-2H-pyran-4-ylmethyl)-3-azabicyclo[3.1.0]hex-6-yl]methyl}quinoline-8-carboxamide L(+)-tartarate] are 72% and 0.8 nM. In the same order, the values of `Nc1c(Cl)cc(C(=O)NCC2(F)CCN(CC3CCOCC3)CC2)c2ncccc12` [Example 20, 5-Amino-6-chloro-N-{[4-fluoro-1-(tetrahydro-2H-pyran-4-ylmethyl)-4-piperidinyl]methyl}quinoline-8-carboxamide L(+)-tartarate] are 58% and 1.1 nM. In the same order, the values of `Nc1c(Cl)cc(C(=O)NCC2(O)CCN(CC3CCOCC3)CC2)c2ncccc12` [Example 22, 5-Amino-6-chloro-N-{[4-hydroxy-1-(tetrahydro-2H-pyran-4-ylmethyl)-4-piperidinyl]methyl}quinoline-8-carboxamide L(+)-tartarate] are 86% and 0.2 nM. As for `Nc1c(Cl)cc(C(=O)NC2CCN(CC3(O)CCOCC3)CC2)c2ncccc12` [Example 24, 5-Amino-6-chloro-N-[1-(4-hydroxytetrahydro-2H-pyran-4-ylmethyl)-4-piperidinyl] quinoline-8-carboxamide], the EC50 under setting [1] came to 4.1 nM. For the same molecule, the Emax under setting [2] was found to be 81%. In the case of `Nc1c(Cl)cc(C(=O)NCC2C3CN(CC4(O)CCOCC4)CC23)c2ncccc12` (stereo not drawn) [Example 25, 5-Amino-6-chloro-N-{[3-(4-hydroxytetrahydro-2H-pyran-4-ylmethyl)-3-azabicyclo[3.1.0]hex-6-yl]methyl}quinoline-8-carboxamideL(+)-tartarate], where the note is “CHO”, the Emax is 93%. The EC50 under setting [1] is 0.6 nM.

On to `Nc1c(Cl)cc(C(=O)NCC2CCN(CC3(O)CCOCC3)CC2)c2ncccc12` [Example 26, 5-Amino-6-chloro-N-{[1-(4-hydroxytetrahydro-2H-pyran-4-ylmethyl)-4-piperidinyl]methyl}quinoline-8-carboxamide], for which, under setting [2], the Emax turned out to be 65%. On to `Nc1c(F)cc(C(=O)NCC2CCN(CC3(O)CCOCC3)CC2)c2ncccc12` [Example 28], for which, where the note is “CHO”, the Emax is 66%. In addition, the EC50 under setting [1] was 0.1 nM. In the same order, the values of `Nc1c(Cl)cc(C(=O)NCC2(O)CCN(CC3(O)CCOCC3)CC2)c2ncccc12` [Example 29, 5-Amino-6-chloro-N-{[4-hydroxy-1-(4-hydroxytetrahydro-2H-pyran-4-ylmethyl)-4-piperidinyl]methyl}quinoline-8-carboxamide L(+)-tartarate] are 84% and 0.1 nM. On to `Nc1c(Cl)cc(C(=O)NCC2CCN(CC3(F)CCOCC3)CC2)c2ncccc12` [Example 30, 5-Amino-6-chloro-N-{[1-(4-fluorotetrahydro-2-pyran-4-ylmethyl)-4-piperidinyl]methyl}quinoline-8-carboxamide L(+)tartarate], for which the Emax (CHO) worked out at 65%. Also, the concentration giving a half-maximal response (EC50) under setting [1] is 0.1 nM. Take `COC(=O)C(C)(C)CN1CCC(CNC(=O)c2cc(Cl)c(N)c3cccnc23)CC1` [Example 31, 5-Amino-6-chloro-N-{[1-(2-methoxycarbonyl-2-methylpropan-1-yl)-4-piperidinyl]methyl}quinoline-8-carboxamide]: the EC50 under setting [1] was 0.3 nM. For the same molecule, under setting [2], the maximal effect (Emax) came to 60%. For `CC(C)(CN1CCC(CNC(=O)c2cc(Cl)c(N)c3cccnc23)CC1)C(=O)O` [Example 32, 5-Amino-6-chloro-N-{[1-(2,2-dimethylproponic acid-3-yl)-4-piperidinyl]methyl}quinoline-8-carboxamide L(+)-tartarate], the Emax (CHO) came out at 60%. Under setting [1], the EC50 was 1.2 nM. In the same order, the values of `CC(C)(O)CN1CCC(CNC(=O)c2cc(Cl)c(N)c3cccnc23)CC1` [Example 35, 5-Amino-6-chloro-N-{[1-(2-hydroxy-2-methylpropyl)-4-piperidinyl]methyl}quinoline-8-carboxamide L(+)-tartarate] are 48% and 0.1 nM. As to `CC(C)(O)CN1CCC(F)(CNC(=O)c2cc(Cl)c(N)c3cccnc23)CC1` [Example 36, 5-Amino-6-chloro-N-{[4-fluoro-1-(2-hydroxy-2-methylpropyl)-4-piperidinyl]methyl} quinoline-8-carboxamide], the EC50 under setting [1] amounted to 2.3 nM. Also, under setting [2], the Emax was determined as 74%. As to `CC(C)(O)CN1CCC(F)(CNC(=O)c2cc(Cl)c(N)c3cccnc23)CC1.Cl` [Example 38, 5-Amino-6-chloro-N-{[4-fluoro-1-(2-hydroxy-2-methylpropyl)-4-piperidinyl]methyl} quinoline-8-carboxamide hydrochloride], under setting [1], the Emax is listed as 54% and the half-maximal effective concentration (EC50) worked out at 1.3 nM. For `CC(C)(O)CN1CC2C(CNC(=O)c3cc(Cl)c(N)c4cccnc34)C2C1` (stereo not drawn) [Example 40, 5-Amino-6-chloro-N-{(3-(2-hydroxy-2-methylpropyl)-3-azabicyclo[3.1.0]hex-6-yl]methyl} quinoline-8-carboxamide L(+)-tartarate], the maximum response (Emax) (CHO) stood at 63%. In addition, the concentration giving a half-maximal response (EC50) under setting [1] was 3.9 nM. In the same order, the values of `CC(C)(O)CN1CCC(CNC(=O)c2cc(F)c(N)c3cccnc23)CC1` [Example 41, 5-Amino-6-fluoro-N-{[1-(2-hydroxy-2-methylpropyl)-4-piperidinyl]methyl}quinoline-8-carboxamide L(+)-tartarate] are 64% and 0.2 nM. With `CC(C)(O)CN1CCC(F)(CNC(=O)c2cc(F)c(N)c3cccnc23)CC1` [Example 42, 5-Amino-6-fluoro-N-{[4-fluoro-1-(2-hydroxy-2-methylpropyl)-4-piperidinyl]methyl} quinoline-8-carboxamide], the concentration giving a half-maximal response (EC50) under setting [1] worked out at 4 nM. Further, the maximum response (Emax) under setting [2] was determined as 74%.
